PubChem BioAssay (NCI)
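Five concentrations, 48 hours, 96-well plates. TGI: concentration producing complete growth inhibition.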

Key:
Test in all cases: NCI tumour cell line growth inhibition, 48 h
[1] = system: OVCAR-8 ovarian
[2] = system: HCC-2998 colon
[3] = system: COLO 205 colon
[4] = system: SK-OV-3 ovarian
[5] = system: IGROV1 ovarian
[6] = system: EKVX NSCLC
[7] = system: SF-295 CNS
[8] = system: MALME-3M melanoma
[9] = system: HOP-62 NSCLC
[10] = system: TK-10 renal
[11] = system: ACHN renal
[12] = system: HOP-92 NSCLC

Cc1ccc(S(=O)(=O)N/N=c2\c(C)c(C3=NS(=O)(=O)c4cc(S(N)(=O)=O)c(Cl)cc4N3)oc3c(Cl)cc(Cl)cc23)cc1
TGI [1]: > 100 µM | TGI [2]: > 100 µM | TGI [3]: 47.8 µM | TGI [4]: > 100 µM | TGI [5]: > 100 µM | TGI [6]: > 100 µM | TGI [7]: > 100 µM | TGI [8]: > 100 µM | TGI [9]: > 100 µM | TGI [10]: > 100 µM | TGI [11]: > 100 µM | TGI [12]: > 100 µM

O=[N+]([O-])c1ccc2c(c1)Nc1c3ccccc3nc3cccc-2c13
TGI [1]: 40.4 µM | TGI [2]: 0.341 µM | TGI [3]: 19.8 µM | TGI [4]: 8.41 µM | TGI [5]: 15.4 µM | TGI [6]: 48.7 µM | TGI [7]: 6.98 µM | TGI [8]: 19.4 µM | TGI [9]: 7.7 µM | TGI [10]: 17.3 µM | TGI [11]: > 60.5 µM | TGI [12]: 18.8 µM

Cc1cc2c(cc1C)[n+](=O)c(C#N)c(Cl)n2[O-]
TGI [1]: 53.2 µM | TGI [2]: 23.7 µM | TGI [3]: 21.7 µM | TGI [4]: 70.5 µM | TGI [5]: 33.3 µM | TGI [6]: 28.5 µM | TGI [7]: > 100 µM | TGI [8]: 30 µM | TGI [9]: 55.7 µM | TGI [10]: 27.9 µM | TGI [11]: 23.9 µM | TGI [12]: 30.3 µM

CC(C)OC(=O)C1=C(O)c2ccccc2S(=O)(=O)N1
TGI [1]: > 100 µM | TGI [2]: > 100 µM | TGI [3]: > 100 µM | TGI [4]: > 100 µM | TGI [5]: > 100 µM | TGI [6]: > 100 µM | TGI [7]: > 100 µM | TGI [8]: > 100 µM | TGI [9]: > 100 µM | TGI [10]: > 100 µM | TGI [11]: > 100 µM

O=C(O)NCc1ccccc1 (tested in a mixture with another compound)
TGI [1]: > 100 µM | TGI [2]: 51.6 µM | TGI [3]: 43.3 µM | TGI [4]: > 100 µM | TGI [5]: > 100 µM | TGI [6]: > 85.1 µM | TGI [7]: > 100 µM | TGI [8]: 85.9 µM | TGI [9]: > 100 µM | TGI [10]: > 87.5 µM | TGI [11]: > 100 µM | TGI [12]: 67.2 µM

CCOC(=O)[C@H]1Nc2c(cccc2[N+](=O)[O-])[C@H]2OCC[C@@H]12
TGI [1]: > 100 µM | TGI [2]: > 100 µM | TGI [3]: > 100 µM | TGI [5]: > 100 µM | TGI [6]: > 100 µM | TGI [7]: > 100 µM | TGI [8]: > 100 µM | TGI [9]: > 100 µM | TGI [10]: > 100 µM | TGI [11]: > 100 µM

Oc1c2c(c3c4c1N=CC=4CCN=3)-c1c(Br)cc(Br)cc1CCN2
TGI [1]: 12.1 µM | TGI [2]: 4.72 µM | TGI [3]: 2.62 µM | TGI [4]: 24.9 µM | TGI [5]: 13.8 µM | TGI [6]: 17.4 µM | TGI [7]: 11 µM | TGI [9]: 29.8 µM | TGI [12]: 26.7 µM

C=C1CC[C@@H](Br)C(C)(C)[C@]12CCC(C)(O)C(Cl)C2 (stereo not given in full)
TGI [1]: 37 µM | TGI [2]: 38.2 µM | TGI [3]: 29.6 µM | TGI [4]: 37.4 µM | TGI [5]: 44 µM | TGI [6]: 40.2 µM | TGI [7]: 43.1 µM | TGI [8]: 86.2 µM | TGI [9]: 49.7 µM | TGI [10]: 78.4 µM | TGI [11]: 36.4 µM | TGI [12]: 46.3 µM

CC(=O)OC/C=C/Cn1ncc(=O)[nH]c1=O
TGI [1]: > 100 µM | TGI [2]: > 100 µM | TGI [3]: > 100 µM | TGI [5]: > 100 µM | TGI [6]: > 100 µM | TGI [8]: > 100 µM | TGI [9]: > 100 µM | TGI [11]: > 100 µM | TGI [12]: > 100 µM

Nc1nncc2c1ccn2C1OC(CO)C(O)C1O (stereo not given)
TGI [1]: > 100 µM | TGI [2]: > 100 µM | TGI [3]: > 100 µM | TGI [4]: > 100 µM | TGI [5]: > 100 µM | TGI [6]: > 100 µM | TGI [7]: > 100 µM | TGI [8]: > 100 µM | TGI [9]: > 100 µM | TGI [10]: > 100 µM | TGI [11]: > 100 µM | TGI [12]: > 100 µM

CC1CCC(O)(C(C)(C(=O)O)c2ccccc2)CC1 (stereo not given)
TGI [1]: > 100 µM | TGI [5]: > 100 µM | TGI [6]: > 100 µM | TGI [7]: > 100 µM | TGI [8]: > 100 µM | TGI [9]: > 100 µM | TGI [10]: > 100 µM | TGI [11]: > 100 µM | TGI [12]: > 100 µM
